Source: patent publication US10519116B2, “Water-soluble pyrazole derivatives as corrosion inhibitors” (Ecolab USA Inc., priority 2015, dated 2019)
Converted amounts (≈) assume the structure as drawn.

Key:
[1] = Copper corrosion rate by linear polarization resistance measurements; settings: copper coupons, 5 ppm inhibitor, pH 7.0, 45° C.; for No FRC Corrosion Rate: absence of bleach, average over 24 hour period; for 1 ppm FRC Corrosion Rate: bleach added to keep FRC at 1 ppm
Experimental: The corrosion rate of copper in the presence of (1H-pyrazol-1-yl)methanol, (3,5-dimethyl-1H-pyrazol-1-yl)methanol, (3,5-dimethyl-1H-pyrazol-1-yl)(phenyl)methanol, 1-(3,5-dimethyl-1H-pyrazol-1-yl)ethan-1-ol, 2-(1H-pyrazol-1-yl)ethan-1-ol, 3-phenyl-1H-pyrazole, 4-chloro-3,5-dimethyl-1H-pyrazole, and 3,5-dimethylpyrazole was determined using linear polarization resistance measurements. In addition, the corrosion rate of copper in the presence of pyrazole, 1-ethyl-1H-pyrazole, and tolyltriazole was determined using linear polarization resistance measurements. (1H-Pyrazol-1-yl)methanol, (3,5-dimethyl-1H-pyrazol-1-yl)methanol, (3,5-dimethyl-1H-pyrazol-1-yl)(phenyl)methanol, 4-chloro-3,5-dimethyl-1H-pyrazole, and 1-(3,5-dimethyl-1H-pyrazol-1-yl)ethan-1-ol were prepared by Applicants. Pyrazole, 3,5-dimethylpyrazole, 2-(1H-pyrazol-1-yl)ethan-1-ol, and 1-ethyl-1H-pyrazole were purchased from TCI America. 3-Phenyl-1H-pyrazole and tolyltriazole were purchased from Sigma-Aldrich (St. Louis, Mo.).
For each experiment, cylindrical copper coupons pre-polished using SIC 600 paper and fitted on a Pine rotator were immersed in a solution of corrosion inhibitor. The test solution comprised 470 ppm calcium, 230 ppm magnesium, 590 ppm chloride, 260 ppm sulfate, and 100 ppm alkalinity, as CaCO3. The pH of the test water was maintained at 7.0 using carbon dioxide, and the water temperature was maintained at 45° C. throughout the experiment.
The copper samples were immersed in 1 liter electrochemical cells comprising a 5 ppm inhibitor solution, and the Rp (polarization resistance) was recorded over a 24 hour period. The analysis was conducted using the following testing conditions: Initial E: −0.02V; Final E: +0.02V; Scan rate: 0.5 mV/s; Sample period: 1 second; Repeat time: 15 minutes; Sample area: 5 cm^2; Density: 8.92 g/cm^3; Copper Eq. Weight: 63.54 g; and Initial delay: 30 seconds.
Next, the copper samples were exposed to 1 ppm FRC by adding a few drops of 4% bleach solution to the electrolyte solution. After the FRC reached 1 ppm, the copper samples were analyzed. Throughout the analysis, the bleach solution was added intermittently to maintain the FRC at 1 ppm. The Rp in the absence and presence of bleach was collected and analyzed, and the average corrosion rate was calculated and recorded in Table 1. Corrosion rates were calculated in mils per year (mpy). FIGS. 1-3 display data plots for compounds 1, 3, 5, 6, and 9.

[2] = Turbidity of 2% aqueous solutions at various pH levels (solubility); type: physicochemical; settings: judged from turbidity at a wide range of pH levels
Experimental: Solutions comprising (1H-pyrazol-1-yl)methanol and 3,5-dimethylpyrazole at various pH levels were prepared by dissolving the corresponding pyrazole (2 grams) in deionized water (98 grams). The solutions were adjusted to the desired pH by adding dilute sulfuric acid or aqueous sodium hydroxide (1 N). The turbidity of each solution was measured using a HACH 2100Q Portable Turbidimeter.

[3] = tested on: Pseudokirchneriella subcapita; test: Chronic 72-Hour Green Algal Growth Test; type: in vivo; settings: 72-hour chronic green algal growth test
Experimental: (§1) The aquatic toxicity of (1H-pyrazol-1-yl)methanol toward a variety of species was analyzed. (1H-pyrazol-1-yl)methanol had lower aquatic toxicity than many commonly used corrosion inhibitors.

[4] = Ceriodaphnia dubia 48-Hour Definitive Toxicity Test; type: in vivo; settings: Ceriodaphnia dubia, in vivo, other: aquatic exposure (compound in the test water)
Experimental: as §1

[5] = tested on: Ceriodaphnia dubia; test: as above; type: in vivo
Experimental: as §1

[6] = in vivo; settings: in vivo; 96-hour definitive toxicity test
Experimental: as §1

[7] = tested on: Oncorhynchus mykiss; test: in vivo; settings: 96-hour definitive toxicity test
Experimental: as §1

Compound	No FRC Corrosion Rate [1] [mpy]	1 ppm FRC Corrosion Rate [1] [mpy]	further results
OCCn1cccn1 [Compound 4, 2-(1H-pyrazol-1-yl)ethan-1-ol]	0.0212	0.2739	–
c1cn[nH]c1 [Compound 9, Pyrazole]	0.4232	0.1666	–
Cc1n[nH]c(C)c1Cl [Compound 7, 4-chloro-3,5-dimethyl-1H-pyrazole]	0.0025	0.0212	–
Cc1cc(C)n(C(C)O)n1 (centres unmarked) [Compound 3, 1-(3,5-dimethyl-1H-pyrazol-1-yl)ethan-1-ol]	0.0036	0.0142	–
OCn1cccn1 [Compound 1, (1H-pyrazol-1-yl)methanol]	0.0057	0.0296	No FRC Corrosion Rate ([1]; listed as (1H-pyrazol-1-yl)methanol): 0.0057 mpy; water solubility [2]: water soluble; IC50 [3]: 3.83 µg/mL (≈ 39 µM); NOEC (survival) [3]: 2.5 mg/L; LC50 at 48 h [4]: 31.5 µg/mL (≈ 321 µM); NOEC (survival) [5]: 13 mg/L; LC50 at 96 h [6]: > 100 µg/mL; LC50 [7]: >100 µg/mL; NOEC (survival) [7]: 50 mg/L
c1ccc(-c2cc[nH]n2)cc1 [Compound 8, 3-phenyl-1H-pyrazole]	0.0039	0.0916	–
Cc1cc(C)n(CO)n1 [Compound 5, (3,5-dimethyl-1H-pyrazol-1-yl)-methanol]	0.0197	0.0228	–
Tolyltriazole [Compound 11, reference compound]	0.0214	0.0995	–
Cc1cc(C)n(C(O)c2ccccc2)n1 (centres unmarked) [Compound 2, (3,5-dimethyl-1H-pyrazol-1-yl)(phenyl)methanol]	0.0043	0.0479	–
Cc1cc(C)[nH]n1 [Compound 6, 3,5-dimethylpyrazole]	0.0396	0.0599	water solubility [2]: water soluble
CCn1cccn1 [Compound 10, 1-ethyl-1H-pyrazole, reference compound]	0.0345	0.5932	–
